# Data published in ChEMBL document CHEMBL5518173, “Discovery of a novel anti-osteoporotic agent from marine fungus-derived structurally diverse sirenins” (Eur J Med Chem, 2024).
# The source made the active and inactive calls. No cut-off for these calls is given here.
# Columns and labels:
# [1] = Inhibition of LPS-induced NF-kappaB activation in mouse RAW264.7 cells transfected with luciferase reporter gene pretreated with compounds for 30 mins followed by LPS stimulation for 8 hrs by luciferase reporter gene assay; assay type: cell-based
# [2] = target: T1, Serine/threonine-protein kinase TBK1 (Homo sapiens) (UniProt Q9UHD2); assay: Inhibition of TBK1 induced IFN-beta luciferase activation in HEK293T cells at 1 to 30 uM by Dual luciferase reporter assay; assay type: cell-based; settings: dose 1-30 µM
# T1 sequence (whole entry): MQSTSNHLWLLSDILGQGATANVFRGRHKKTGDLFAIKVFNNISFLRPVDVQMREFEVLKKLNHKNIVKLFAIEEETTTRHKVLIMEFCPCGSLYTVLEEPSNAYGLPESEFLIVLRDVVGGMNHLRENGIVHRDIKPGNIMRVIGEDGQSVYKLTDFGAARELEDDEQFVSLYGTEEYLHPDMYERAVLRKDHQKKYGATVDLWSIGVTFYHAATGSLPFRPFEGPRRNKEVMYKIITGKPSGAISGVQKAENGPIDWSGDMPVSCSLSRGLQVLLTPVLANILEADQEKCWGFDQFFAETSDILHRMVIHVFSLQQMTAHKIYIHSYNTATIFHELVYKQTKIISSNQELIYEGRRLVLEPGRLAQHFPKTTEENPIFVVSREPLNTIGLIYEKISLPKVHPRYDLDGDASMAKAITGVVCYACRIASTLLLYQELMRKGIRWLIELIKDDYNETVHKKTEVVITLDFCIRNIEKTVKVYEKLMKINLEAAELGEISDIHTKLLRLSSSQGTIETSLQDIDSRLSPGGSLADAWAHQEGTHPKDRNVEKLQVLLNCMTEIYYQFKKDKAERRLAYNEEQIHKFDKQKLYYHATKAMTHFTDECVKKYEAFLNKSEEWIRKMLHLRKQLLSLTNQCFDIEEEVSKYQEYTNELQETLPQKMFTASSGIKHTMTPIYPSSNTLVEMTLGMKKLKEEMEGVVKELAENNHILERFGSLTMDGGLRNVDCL
# Danio rerio [3] = species on record: Danio rerio; assay: Anti osteoporosis activity in prednisone induced Tg (ola.sp7:nlsGFP) Zebrafish model assessed as mitigation of fluorescence area reduction in zebrafish opercle at 2.5 to 5 uM by microscopy based analysis; assay type: functional, organism-based; settings: dose 2.5-5 µM
# Danio rerio [4] = species on record: Danio rerio; assay: Anti osteoporosis activity in prednisolone induced Tg (ola.sp7:nlsGFP) Zebrafish model assessed as upregulation of col1a2 mRNA expression at 5 uM by real-time qPCR analysis; assay type: functional, organism-based
# BMMC [5] = assay: Cytotoxicity against mouse BMMC cells at 5 to 15 uM measured after 72 hrs by MTT assay; assay type: toxicity, cell-based; settings: dose 5-15 µM
# Danio rerio [6] = species on record: Danio rerio; assay: Anti osteoporosis activity in prednisolone induced Tg (ola.sp7:nlsGFP) Zebrafish model assessed as upregulation of itbg5 mRNA expression at 5 uM by real-time qPCR analysis; assay type: functional, organism-based
# Danio rerio [7] = species on record: Danio rerio; assay: Anti osteoporosis activity in Tg (ola.sp7:nlsGFP) Zebrafish model assessed as reversal of prednisone induced alp gene inhibition 2.5 to 10 uM by real-time qPCR analysis; assay type: functional, organism-based; settings: dose 2.5-10 µM
# Danio rerio [8] = species on record: Danio rerio; assay: Anti osteoporosis activity in prednisone induced Tg (ola.sp7:nlsGFP) Zebrafish model assessed as mitigation of fluorescence area reduction in zebrafish branchiostegal rays at 2.5 to 5 uM by microscopy based analysis; assay type: functional, organism-based; settings: dose 2.5-5 µM
# Danio rerio [9] = species on record: Danio rerio; assay: Anti osteoporosis activity in Tg (ola.sp7:nlsGFP) Zebrafish model assessed as reversal of prednisone induced bmp4 gene inhibition 2.5 to 10 uM by real-time qPCR analysis; assay type: functional, organism-based; settings: dose 2.5-10 µM
# BMDM [10] = assay: Downregulation of TNF-alpha mRNA expression in mouse BMDM cells by real-time PCR analysis; assay type: functional, cell-based; settings: dose 1-30 µM
# BMDM [11] = assay: Downregulation of CXCL10 mRNA expression in mouse BMDM cells by real-time PCR analysis; assay type: functional, cell-based; settings: dose 1-30 µM
# Danio rerio [12] = species on record: Danio rerio; assay: Anti osteoporosis activity in prednisolone induced Tg (ola.sp7:nlsGFP) Zebrafish model assessed as upregulation of frem2b mRNA expression at 5 uM by real-time qPCR analysis; assay type: functional, organism-based
# BMDM [13] = assay: Downregulation of IFN-beta mRNA expression in mouse BMDM cells by real-time PCR analysis; assay type: functional, cell-based; settings: dose 1-30 µM
# BMMC [14] = assay: Anti-osteoporosis activity in mouse BMMC cells assessed as inhibition of RANKL-induced osteoclast differentiation measured after 3 days in presence of MCSF by TRAP staining based assay; assay type: functional, cell-based; settings: dose 5-15 µM, time 3.0 day
# Danio rerio [15] = species on record: Danio rerio; assay: Anti osteoporosis activity in prednisolone induced Tg (ola.sp7:nlsGFP) Zebrafish model assessed as upregulation of vdrb-mRNA expression at 5 uM by real-time qPCR analysis; assay type: functional, organism-based
# Danio rerio [16] = species on record: Danio rerio; assay: Anti osteoporosis activity in Tg (ola.sp7:nlsGFP) Zebrafish model assessed as reversal of prednisone induced bmp2a gene inhibition 2.5 to 10 uM by real-time qPCR analysis; assay type: functional, organism-based; settings: dose 2.5-10 µM
# [17] = target: T2, Interferon regulatory factor 3 (Homo sapiens) (UniProt Q14653); assay: Inhibition of IRF3 induced IFN-beta luciferase activation in HEK293T cells at 1 to 30 uM by Dual luciferase reporter assay; assay type: cell-based; settings: dose 1-30 µM
# T2 sequence (whole entry): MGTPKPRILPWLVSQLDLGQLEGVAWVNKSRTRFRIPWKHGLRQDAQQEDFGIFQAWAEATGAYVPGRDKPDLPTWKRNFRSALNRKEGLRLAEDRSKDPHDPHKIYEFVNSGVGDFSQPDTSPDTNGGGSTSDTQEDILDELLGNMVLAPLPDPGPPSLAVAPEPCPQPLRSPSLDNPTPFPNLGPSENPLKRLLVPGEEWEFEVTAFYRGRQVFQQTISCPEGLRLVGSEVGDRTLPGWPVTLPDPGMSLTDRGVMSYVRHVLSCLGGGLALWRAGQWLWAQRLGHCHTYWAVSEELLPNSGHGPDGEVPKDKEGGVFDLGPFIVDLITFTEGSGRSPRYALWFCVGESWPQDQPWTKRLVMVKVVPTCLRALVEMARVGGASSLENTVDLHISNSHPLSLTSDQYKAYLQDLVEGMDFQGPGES
# Danio rerio [18] = species on record: Danio rerio; assay: Anti osteoporosis activity in prednisone induced Tg (ola.sp7:nlsGFP) Zebrafish model assessed as mitigation of fluorescence density reduction in zebrafish branchiostegal rays at 2.5 to 5 uM by microscopy based analysis; assay type: functional, organism-based; settings: dose 2.5-5 µM
# Danio rerio [19] = species on record: Danio rerio; assay: Anti osteoporosis activity in prednisolone induced Tg (ola.sp7:nlsGFP) Zebrafish model assessed as upregulation of frem2a mRNA expression at 5 uM by real-time qPCR analysis; assay type: functional, organism-based
# RAW264.7 = assay: Inhibition of LPS-induced NF-kappaB activation in mouse RAW264.7 cells transfected with luciferase reporter gene at 20 uM pretreated with compounds for 30 mins followed by LPS stimulation for 8 hrs by luciferase reporter gene assay; assay type: cell-based; settings: time 8.5 hrs
# Danio rerio [20] = species on record: Danio rerio; assay: Anti osteoporosis activity in prednisolone induced Tg (ola.sp7:nlsGFP) Zebrafish model assessed as upregulation of col4a6 mRNA expression at 5 uM by real-time qPCR analysis; assay type: functional, organism-based
# HEK293T = assay: Inhibition of cGAS/STING induced IFN-beta luciferase activation in HEK293T cells at 1 to 30 uM by Dual luciferase reporter assay; assay type: cell-based; settings: Homo sapiens, dose 1-30 µM
# Danio rerio [21] = species on record: Danio rerio; assay: Anti osteoporosis activity in prednisone induced Tg (ola.sp7:nlsGFP) Zebrafish model assessed as mitigation of fluorescence density reduction in zebrafish opercle at 2.5 to 5 uM by microscopy based analysis; assay type: functional, organism-based; settings: dose 2.5-5 µM
smiles,measurement,setting,value
COC(=O)CC[C@@]1(C)[C@@H]2C=C(C(=O)O)CC[C@@H]21,IC50,[1],14.5 µM
same,inhibition,[2],Active
same,Activity,Danio rerio [3],Active
same,Activity,Danio rerio [4],Active
same,Activity,BMMC [5],Non-Toxic
same,Activity,Danio rerio [6],Active
same,Activity,Danio rerio [7],Active
same,Activity,Danio rerio [8],Active
same,Activity,Danio rerio [9],Active
same,Activity,BMDM [10],Dose-Dependent Effect
same,Activity,BMDM [11],Dose-Dependent Effect
same,Activity,Danio rerio [12],Active
same,Activity,BMDM [13],Dose-Dependent Effect
same,Activity,BMMC [14],Dose-Dependent Effect
same,Activity,Danio rerio [15],Active
same,Activity,Danio rerio [16],Active
same,inhibition,[17],Active
same,Activity,Danio rerio [18],Active
same,Activity,Danio rerio [19],Active
same,inhibition,RAW264.7,Active
same,Activity,Danio rerio [20],Active
same,inhibition,HEK293T,Active
same,Activity,Danio rerio [21],Active
CC(C)(O)C(=O)CC[C@@]1(C)[C@@H]2C=C(C(=O)O)CC[C@@H]21,inhibition,RAW264.7,Active
C[C@]1(C(=O)O)[C@@H]2C=C(C(=O)O)CC[C@@H]21,inhibition,RAW264.7,Active
